Where two headings read alike, the source gives them in different places.
Columns and labels:
Format in all cases: cell-based, human
BEAS-2B cells [1] = assay: MTT cytotoxicity assay, BEAS-2B cells; settings: for IC50: table prints none, read-out: average IC50, BEAS-2B cells (mean ± SD)
A549 cells [2] = assay: Comet Assay DNA damage, A549 cells; parameters: key to DNA damage class (comet visual scoring, Classes 0–4): Class 4: Classes 0–4 to be used for visual scoring. The increased number of classes represents the increase in DNA damage severity; Class 3: Classes 0–4 to be used for visual scoring. The increased number of classes represents the increase in DNA damage severity; Class 2: Classes 0–4 to be used for visual scoring. The increased number of classes represents the increase in DNA damage severity; settings: for DNA damage class (comet visual scoring, Classes 0–4): IC50 for 24 h (H2O2: 100 μM); for % DNA in tail / Olive tail moment / Tail length (px): IC50 for 24 h (H2O2: 100 μM, 20 minutes)
Description: (§1) The Comet Assay® kit (Trevigen, Inc, USA) was used to perform DNA damage activity analysis. […] After being detached by Accutase (BD™Bioscience, USA), the cells were collected and washed with ice-cold PBS. […] The cells were then lysed in the lysis solution at 4°C for 30 minutes. Then, the cells were kept in an alkaline unwinding solution at room temperature for 20 minutes to allow the DNA to unwind. The test was immediately followed by electrophoresis, performed at 21 V and 300 mA for 30 minutes. Slides were washed in 70% ethanol and water and stained with SYBR® gold nucleic acid gel stain (Invitrogen, Thermo Fisher Scientific, USA) before visualisation under the Olympus IX71 inverted fluorescence microscope (Olympus, Tokyo, Japan). A total of 50 cells were randomly selected and captured per sample at 100× magnification and analysed using the Open Comet Image J available at https:/www.cometbio.org/. Tail length, percentage of tail DNA, and Olive Tail Moment (OTM) were calculated for DNA damage assessment.

BEAS-2B cells [3] = assay: Comet Assay DNA damage, BEAS-2B cells; parameters: key to DNA damage class (comet visual scoring, Classes 0–4): Class 4: Classes 0–4 to be used for visual scoring. The increased number of classes represents the increase in DNA damage severity; Class 3: Classes 0–4 to be used for visual scoring. The increased number of classes represents the increase in DNA damage severity; Class 2: Classes 0–4 to be used for visual scoring. The increased number of classes represents the increase in DNA damage severity; settings: for DNA damage class (comet visual scoring, Classes 0–4): IC50 for 24 h (H2O2: 100 μM); for % DNA in tail / Olive tail moment / Tail length (px): IC50 for 24 h (H2O2: 100 μM, 20 minutes)
Description: as §1

BEAS-2B cells [4] = assay: Intracellular ROS, CM-H2DCFDA assay, BEAS-2B cells; settings: treated with IC50 for 24 hours, control (untreated cells) set to 1
Description: (§2) After exposure, cells were washed with PBS and loaded with 2.5 μM of CM-H2DCFDA in phenol red and FBS-free media in the dark for 30 minutes at 37°C. Subsequently, the reaction mixture was aspirated; cells were washed with fresh culture media and replaced with 100 μL of culture media. The DCF fluorescence intensity was measured at 485 nm excitation and 520 nm emission using a FLUOstar Omega fluorescence plate reader (BMG Labtech, Ortenberg, Germany). Results are presented as mean fold change ± standard deviation of three independent experiments.

BEAS-2B cells [5] = assay: Apoptosis by DAPI and AO/PI double staining, BEAS-2B cells; settings: IC50, 24 hours
Description: (§3) DAPI staining is used to assess apoptosis-related morphological changes such as nuclear fragmentation or condensation. […] AO stains both live and dead cells, whereas PI stains only the dead cells. […] Following incubation, the cells were washed with PBS and then fixed with 1 mL of 4% paraformaldehyde (Sigma-Aldrich, St. Louis, Missouri, USA) and cold 70% ethanol for 10 minutes at room temperature. Then, the cells were stained with a 1 : 1 ratio of 10 µg/mL of DAPI (Nacalai, Tesque chemical, Kyoto, Japan) and 10 μg/mL acridine orange/propidium iodide (Sigma-Aldrich, St. Louis, Missouri, USA) and incubated for 30 minutes in the dark. An Olympus IX71 inverted fluorescence microscope (Olympus, Tokyo, Japan) was used to observe and record the morphology of the cells.

A549 cells [6] = assay: MTT cytotoxicity assay, A549 cells (with selectivity index); settings: for Selectivity index (SI): IC50 normal cells (BEAS-2B) / IC50 cancer cells (A549); for IC50: table prints none, read-out: average IC50, A549 cells (mean ± SD)
Description: Both A549 and BEAS-2B cells were originally purchased from the American Type Culture Collection (ATCC, USA). Both cells were cultured in Dulbecco's Modified Eagle's Medium (DMEM: Gibco, USA) and 1 : 1 mixture of DMEM and Ham's F-12 (DMEM-F12; Gibco, USA) medium with phenol red and supplemented with 10% fetal bovine serum (FBS; Gibco, USA), 0.1% (v/v) penicillin-streptomycin, and 2 mM L-glutamine (PenStrep; Gibco, USA). The cell lines were maintained in a humidified environment at 37°C with 5% CO2.
The culture medium alone (without cells) was included as a blank for this test. A549 and BEAS-2B cells were treated with Cisplatin as a positive control. A total of 10 μL of MTT solution (5 mg/mL) was applied to each well at about 24 to 72 hours after treatment and was further incubated for 4 hours in the dark at 37°C with 5% CO2. Upon incubation, the mixture solution was aspirated, and 100 μL of dimethyl sulfoxide (DMSO) (Fisher Scientific, USA) was added to solubilise the purple formazan. The optical density (O.D.) of each sample was measured at a 570 nm wavelength using a microplate reader (BioTek Instruments, Inc, USA). The percentage (%) of cell viability was determined using the following formula [37]:(1) Cell viability%=O.D.treatment–O.D.blank/O.D.untreated cell–O.D.blank×100%.
Based on the measured cell viability (%), a graph was created to display the dose-response curves for each cell line. […] The data was expressed as a mean and standard deviation with each experiment consisting of triplicates. Statistical differences between untreated cells and treated cells were determined using Student's t-test (IBM SPSS Statistics 27).

A549 cells [7] = assay: Apoptosis by DAPI and AO/PI double staining, A549 cells; settings: A549, IC50, 24 hours
Description: as §3

A549 cells [8] = assay: Intracellular ROS, CM-H2DCFDA assay, A549 cells; settings: A549, treated with IC50 for 24 hours; control (untreated cells) set to 1
Description: as §2

SMILES | IC50 (BEAS-2B cells [1]; 24 h) | IC50 (BEAS-2B cells [1]; 48 h) | IC50 (BEAS-2B cells [1]; 72 h) | DNA damage class (comet visual scoring, Classes 0–4) (A549 cells [2]) | % DNA in tail (A549 cells [2]) | Olive tail moment (A549 cells [2]) | Tail length (px) (A549 cells [2]) | DNA damage class (comet visual scoring, Classes 0–4) (BEAS-2B cells [3]) | % DNA in tail (BEAS-2B cells [3]) | Olive tail moment (BEAS-2B cells [3]) | Tail length (px) (BEAS-2B cells [3]) | further results
O=[N+]([O-])[O-].[Ag+] [AgNO3, silver nitrate] | 16 ± 0.03 µM | 15 ± 0.02 µM | 14 ± 0.02 µM | – | – | – | – | – | – | – | – | concentrations decreasing proliferation of BEAS-2B cells to nearly 50% (BEAS-2B cells [1]; after 24 to 74 hours of treatment (so in the source)): 20 to 100 µM
OO [H2O2] | – | – | – | Class 2 | 35.64 ± 9.31% | 9.51 ± 3.49 | 25.3 ± 6.96 px | Class 4 | 85.86 ± 2.71% | 27.63 ± 4.6 | 53.91 ± 9.95 px | –
N.N.[Cl][Pt][Cl] [Cisplatin] | 69.2 ± 1.75 µM | 31.6 ± 3.27 µM | 18.84 ± 0.13 µM | Class 3 | 48.26 ± 4.54% | 28.81 ± 4.94 | 73.83 ± 8.9 px | Class 4 | 63.79 ± 3.01% | 78.49 ± 0.8 | 160.07 ± 3.3 px | ROS level, DCF fold (BEAS-2B cells [4]): 1.23 ± 0.01 fold change; mode of cell death (DAPI, AO/PI staining), in words (BEAS-2B cells [5]): induce apoptosis; concentration at which BEAS-2B cells were significantly dead (BEAS-2B cells [1]; all three time points (24, 48, 72 h)): 65 µM; Selectivity index (SI) (A549 cells [6]; 24 h): 1.32; Selectivity index (SI) (A549 cells [6]; 48 h): 1.66; Selectivity index (SI) (A549 cells [6]; 72 h): 1.08; IC50 (A549 cells [6]; MTT, 24 h): 52.5 ± 7.92 µM; IC50 (A549 cells [6]; MTT, 48 h): 19.1 ± 3.19 µM; IC50 (A549 cells [6]; MTT, 72 h): 17.5 ± 0.6 µM; concentration at which A549 cells were significantly dead (A549 cells [6]; MTT, all three time points (24, 48, 72 h)): 50 µM; mode of cell death (DAPI, AO/PI staining), in words (A549 cells [7]): induce apoptosis; ROS level, DCF fold (A549 cells [8]): 1.16 ± 0.04 fold change

Reference: paper PMC9525761, “Cytotoxicity and Genotoxicity of Biogenic Silver Nanoparticles in A549 and BEAS-2B Cell Lines” (Bioinorganic Chemistry and Applications, 2022)
